# Source: patent publication US11013719B2, “Sunitinib formulations and methods for use thereof in treatment of glaucoma” (The Johns Hopkins University, priority 2014, dated 2021)
# Columns and labels:
# immunopanned RGCs = assay: Survival of immunopanned primary RGCs in culture; assay type: cell-based, mice; conditions: for Neuroprotective (survival-promoting) activity on primary RGCs in culture: increasing doses, 72 hours in culture; for Toxicity in primary RGC culture: nanomolar doses
# Procedure: All animal use was in accordance with ARVO Statement for the Use of Animals, and all the experimental procedures were performed in compliance with animal protocols approved by the IACUC at Johns Hopkins University. Retinas were isolated from postnatal 0-5 day mice and dissociated with papain. Microglia was immunodepleted with anti-CD11b conjugated Dynabeads. The suspension of retinal cells were immunopanned on plates pre-conjugated with anti-Thy1.2 antibody (Serotec, MCA028) and anti-mouse IgM at room temperature (RT). After washing, RGCs were released from the plate by a cell lifter, counted, and seeded at a density of 10,000 per well in 96-well plates in the media composed of Neurobasal, B27, N2 supplement, L-glutamine, and penicillin/streptomycin. […] Images were taken from portions of each well with Cellomics Kinetscan, and cell survival was quantified and calculated with the algorithms in Cellomics Neuroprofiling package. As indicated, RGC viability was alternatively measured by CellTiter-Glo luminescence (Promega).
# For siRNA-based screening, the siRNAs from the Sigma Mission Mouse Kinome library were complexed with NeuroMag (Oz Biosciences) at a final concentration of 20 nM. […] Confirmatory siRNAs were obtained from both Dharmacon and Ambion. […] RGCs were cultured for 48 h, and cell viability was analyzed on a plate reader (ViewLux, Perkin Elmer) using the bioluminescent CellTiterGlo (Promega) assay. Concentration response curves were created using CurveFit (NIH NCATS).
# optic nerve axons = assay: Rat laser-induced ocular hypertension (glaucoma model); assay type: in vivo, Wistar rats; conditions: for Neuroprotection in the glaucoma model: intravitreal PLGA microspheres / slow release formulation
# Procedure: (§1) 6-week old male Wistar rats were anesthetized with ketamine/xylazine. A partial periotomy was made to expose the sclera. The injection site was approximately 1 mm posterior to the ora serrata, and the injection glass pipet was angled towards the optic disc in order to avoid lens injury. 5 μL (10 μg) of PLGA microspheres were injected with a glass pipet and Hamilton syringe.
# Intraocular pressure (IOP) was unilaterally elevated by laser treatment of the trabecular meshwork as previously described^7. Briefly, 6-week old Wistar male rats were anesthetized with ketamine/xylazine. On two consecutive weeks, 40-50 532 nm diode laser spots were applied to the prelimbal region (50 μm diameter, 600 mW power and 0.6 seconds duration). Under anesthesia, the IOP of laser-treated and fellow eyes was measured with TonoLab one and three days after laser treatment. Four weeks following laser treatment, rats were perfused with 4% paraformaldehyde in phosphate buffer. Optic nerves were isolated, postfixed with 1% osmium tetroxide, embedded in epoxy resin and stained with 1% toluidine blue. Images from 10 random and nonoverlapping fields were taken with 100× oil phase contrast objective. The area of entire optic nerve cross-sections were imaged with 10× magnification, and used with axon counts from the 10 field to derive axon counts per nerve. The laser treatment and acquisition of optic nerve images were performed in a masked fashion.
# [1] = Solubility of sunitinib in aqueous solution; assay type: physicochemical
# kinases = conditions: at neuroprotective concentrations; cited from earlier work
# DLK = DLK signaling in immunopanned RGCs (Western blot of phospho-MKK7 and phospho-JNK); assay type: cell-based, mice; conditions: same concentrations that increase RGC survival
# Procedure: Western blots were performed according to the standard protocol. The following antibodies were from Cell Signaling Technology: Phospho-JNK, Thr183/Tyr185 (4671); JNK (9258); Phospho-MKK7 (4171), and MKK7 (4172). Monoclonal anti-alpha-tubulin antibody (T6074) was purchased from Sigma. DLK rabbit polyclonal was provided by S. Hirai.
# To assess sunitinib's effect on DLK signaling in RGCs, immunopanned cells were cultured in the presence of increasing amounts of sunitinib.
# RGCs [2] = assay: Whole-cell patch-clamp recordings from RGCs at two weeks in culture
# From the text: Recordings were made by using the whole-cell patch-clamp technique in both current- and voltage-clamp modes with an Axopatch 200B. Data were low-pass filtered at 1 kHz (Bessel) and sampled at 10 kHz. […] The recording pipette was filled with the following intracellular solution (in mM): 100 K-gluconate, 50 KCl, 20 HEPES, 10 EGTA, 5 MgCl2, 2 ATP, 0.1 GTP, pH adjusted to 7.33 with KOH. The cells were continuously perfused with (in mM): 140 NaCl, 5 KCl, 1 MgCl2, 2.5 CaCl2), 10 glucose, 10 HEPES, pH 7.4 with NaOH.
# To determine whether the RGCs that are kept alive for extended periods with DLK siRNA or sunitinib treatment remain functional, patch-clamp recordings were performed at two weeks in culture.
# RGCs [3] = assay: Rat optic nerve transection after intravitreal microspheres; assay type: in vivo, Wistar rats
# Procedure: as §1
# The optic nerve was exposed by a partial peritomy and intraorbital dissection of the extraocular muscles, and then transected with a 25-gauge needle. 4-Di-10-ASP were then applied to the proximal nerve stump. Care was taken to avoid vascular injury during the transection, and retinal perfusion was examined after nerve transection. Two weeks after transection, rats were sacrificed and enucleated. Retinas were flatmounted, imaged with confocal microscopy and the number of 4-Di-10-ASP-labeled cells with RGC morphology was quantified. Imaging and quantification of RGC survival were performed in a masked fashion.
molecule,measurement,setting,value
O=C(c1ccc(/C=C/c2n[nH]c3ccccc23)cc1)N1CCNCC1 [KW-2449],Neuroprotective (survival-promoting) activity on primary RGCs in culture,immunopanned RGCs,promoted the survival of primary RGCs in culture
CCN(CC)CCNC(=O)c1c(C)[nH]c(/C=C2\C(=O)Nc3ccc(C(=O)N(C)C)cc32)c1C [SR8165],DLK toxicity,immunopanned RGCs,reduced DLK toxicity
same,Neuroprotective (survival-promoting) activity on primary RGCs in culture,immunopanned RGCs,greater efficacy in vitro
same,Neuroprotection in the glaucoma model,optic nerve axons,conferred similar neuroprotection
CN(C)S(=O)(=O)c1ccc2c(c1)/C(=C/c1cc3c([nH]1)CCCC3)C(=O)N2 [SU6656],Neuroprotective (survival-promoting) activity on primary RGCs in culture,immunopanned RGCs,neuroprotective
CCN(CC)CCNC(=O)c1c(C)[nH]c(/C=C2\C(=O)Nc3ccc(F)cc32)c1C [Sunitinib],Neuroprotective (survival-promoting) activity on primary RGCs in culture,immunopanned RGCs,dose-dependent increase in the viability of primary RGCs
same,Solubility in aqueous solution,[1],pH dependent
same,Number of kinases inhibited,kinases,~200 kinases
same,"Phosphorylation of targets downstream of DLK, including MKK7 and JNK",DLK,decrease in the phosphorylation
same,Reduction of optic nerve axon loss,"optic nerve axons; intravitreal drug-eluting microspheres, one month, p<0.05",40%
same,Functionality of RGCs kept alive for extended periods,RGCs [2],conducted action potentials in response to depolarizing current and were responsive to exogenously applied glutamate
same,Increase in surviving RGCs compared to control animals,"RGCs [3]; intravitreal PLGA microspheres 7 days before transection, two weeks post-transection",3-4 fold
COc1cc(N2CCC(N3CCN(C)CC3)CC2)ccc1Nc1ncc(Cl)c(Nc2ccccc2S(=O)(=O)C(C)C)n1 [TAE-684],Toxicity in primary RGC culture,immunopanned RGCs,limited by toxicity at nanomolar doses
"Cc1cc(Nc2cc(N3CCN(C)CC3)nc(Sc3ccc(NC(=O)C4CC4)cc3)n2)[nH]n1 [Tozasertib, tozasertib]",Neuroprotective (survival-promoting) activity on primary RGCs in culture,immunopanned RGCs,promoted the survival of primary RGCs in culture
same,Neuroprotection in the glaucoma model,optic nerve axons,protected RGCs
same,Protection of RGCs in the optic nerve transection model,RGCs [3]; intravitreal slow release formulation,protected RGCs
C[C@@H](Oc1cc(-c2cnn(C3CCNCC3)c2)cnc1N)c1c(Cl)ccc(F)c1Cl [crizotinib],Neuroprotective (survival-promoting) activity on primary RGCs in culture,immunopanned RGCs,promoted the survival of primary RGCs in culture
COc1cc2c(Oc3ccc(NC(=O)C4(C(=O)Nc5ccc(F)cc5)CC4)cc3F)ccnc2cc1OCCCN1CCOCC1 [foretinib],Neuroprotective (survival-promoting) activity on primary RGCs in culture,immunopanned RGCs,promoted the survival of primary RGCs in culture
Cc1ccc(NC(=O)c2ccc(CN3CCN(C)CC3)cc2)cc1Nc1nccc(-c2cccnc2)n1 [imatinib],Neuroprotective (survival-promoting) activity on primary RGCs in culture,immunopanned RGCs,lack neuroprotective activity
CCOc1cc2ncc(C#N)c(Nc3ccc(OCc4ccccn4)c(Cl)c3)c2cc1NC(=O)/C=C/CN(C)C [neratinib],Toxicity in primary RGC culture,immunopanned RGCs,limited by toxicity at nanomolar doses
CNC(=O)c1cc(Oc2ccc(NC(=O)Nc3ccc(Cl)c(C(F)(F)F)c3)cc2)ccn1 [sorafenib],Neuroprotective (survival-promoting) activity on primary RGCs in culture,immunopanned RGCs,lack neuroprotective activity
Clc1ccc(Nc2nnc(Cc3ccncc3)c3ccccc23)cc1 [vatalanib],Neuroprotective (survival-promoting) activity on primary RGCs in culture,immunopanned RGCs,lack neuroprotective activity
lestautinib,Neuroprotective (survival-promoting) activity on primary RGCs in culture,immunopanned RGCs,promoted the survival of primary RGCs in culture
